Reference: patent US9481743B2, “Polyelectrolyte polymers, their manufacture and use” (priority 2013, dated 2016)
Values joined by “and” are separate entries in the source; they are usually repeats but may differ in a detail not shown here. Equal values may be shown once.

What was measured:
[1] = Solubility/miscibility tests; type: physicochemical
Method: Approximately 5-10 mg of compound was added to a test tube followed by the addition of 1.5 mL of solvent followed by 5 seconds of gentle stirring. If dissolution was not observed immediately, the mixture was further stirred and sonicated for 30 seconds. Material was deemed soluble if the resulting solution was free of particulate and haze, determined by visual inspection. […] If solutions remained hazy, they were referred to as emulsion mixtures.

[2] = Slow heating within a mass spectrometer, perfluoro-tert-butanol fragment m/z 197 monitored; type: physicochemical; conditions: heated slowly within a mass spectrometer
Excerpt: Compound [3b]Cl was heated slowly within a mass spectrometer and the fragments of perfluoro-tert-butanol was monitored.

[3] = Thermal degradation by thermal gravimetric analysis (TGA); type: physicochemical; conditions: 10° C./min, nitrogen
Method: Nuclear Magnetic Resonance (NMR) spectroscopy was conducted on a Varian INOVA 400 MHz spectrometer (^1H, 400.09 MHz, ^31P{^1H} 161.82 MHz, ^19F, 376.15 MHz). All ^1H spectra were referenced relative to tetramethyl silane (CDCl3; ^1H δH=7.26 ppm and CO(CD3)2; ^1H δH=2.04). The chemical shifts for ^31P{H} NMR spectroscopy were referenced using an external standard (85% H3PO4; δP=0). The chemical shifts for ^19F{^1H} NMR spectroscopy were also referenced using an external standard (trifluorotoluene; δF=−63.9 ppm). Infrared spectra were recorded using a Bruker Tensor 27 spectrometer using attenuated total reflectance mode (ATR) using a ZnSe crystal. […] Water contact angles (WCA) were measured using a Kruss DSA100 Drop Shape Analyzer and analyzed using Drop Shape Analysis. Thermal degradation was determined using Thermal Gravimetric Analysis (TGA) on a Q600 SDT TA instrument. […] Glass transition temperatures were determined using Differential Scanning calorimetry (DSC) on a DSC Q20 TA instrument. […] Melting points of all HFPS were determined using a Gallenkamp Variable Heater in air. Mass spectrometry was recorded in both positive and negative ion modes using electrospray ionization (ESI) Micromass LCT spectrometer. […] The positive or negative secondary ions were extracted from the sample surface, mass separated and detected via a reflectron-type time-of-flight analyser. […]

Escherichia coli = assay: Antibacterial drop-test of UV-cured films; type: cell-based
Method: (§1) A desired amount of 2-hydrox-2-methy-1-phenyl-propanone (5 wt %), diacrylate crosslinker (EB 130, a cyclic aliphatic diacrylate) and the acrylate-appended phosphonium salt were weighed and combined in screw top vials. The mixture was then insonated at 45° C. for 20 min until the solutions were free of particulate and haze. After cooling to room temperature, the solutions were cast on polyester films and irradiated with UV light three times. Leached films were treated with H2O (Milli-Q) in a wrist action shaker for 4 hours, followed by washing with H2O (2×10 mL) and air drying. Both leached and unleached films were subjected to the antibacterial test (below).
(§2) The antibacterial activities of the charged surfaces against Gram-negative bacteria Escherichia coli […] were studied using the antibacterial drop-test. E. coli precultured in 15 mL of nutrient broth (Difco™ BD) at 37° C. for 24 h, was washed by centrifuging at 4000 rpm for 10 min. After removing the supernatant, the cells were washed with phosphate buffered saline (PBS) twice and re-suspended and diluted to approximately 10^6 colony forming units (CFU)/mL in PBS solution. The samples were placed in sterilized Petri dishes. 100 μL of PBS solution with bacteria was added dropwise onto sterilized surfaces until completely covered. The petri dishes were sealed and placed in an incubator at 37° C. with the humidity 46%. After 4 hr, the bacteria were washed from the surface of the sample by using 10 mL PBS in the sterilized Petri dish. From this solution, 100 μL was spread onto solid plate count agar (Difco™ BD). After incubation for 24 h at 37° C., the number of surviving bacterial colonies on the Petri dishes were counted. The results after multiplication with the dilution factor were expressed as CFU per mL. The above experiments were carried out in triplicate for each sample. The percentage of killed bacteria was calculated as [(CFU of initial bacterial suspension−CFUs following surface contact)/CFU of initial bacterial suspension]×100.

S. Aureus = assay: Antibacterial drop-test of UV-cured films; type: cell-based
Method: as §1, §2

[4] = Density of surface phosphonium cations by UV-vis (fluorescein dye); type: physicochemical
Method: Characterization by FTIR-ATR spectroscopy confirmed the conversion of acrylate functionality post polymerization. Percent cure was determined using a literature procedure. The intensity of the acrylate vibration at 810 cm^−1 was compared to the C═O vibration at 1750 cm^−1 both before and after irradiation. […] The density of surface phosphonium cations was determined by UV-vis spectroscopy as described in a literature procedure.
Characterization by FTIR-ATR spectroscopy confirmed the conversion of acrylate functionality post polymerization. […] The density of surface phosphonium cations was determined by UV-vis spectroscopy as described in a literature procedure^23. […] This assumes a 1:1 ratio of positive and negative charge on the surface.
Before deposition of [Au25L18]^−, the number of accessible charges on the PPF was quantified. A known protocol utilizing fluorescein dye was employed to determine the value for the above system and to relate this quantity back to the percentage of phosphonium monomers that were included in the original formulation.^23 This procedure is commonly used as a characterization technique for films containing surface-bound quaternary salts. […] At 30 wt %, a dramatic increase in the number of quaternary charges was observed (1.5×10^15 cations/cm^2). Increasing the salt content to 37.5 and 47.5 wt % yielded surfaces with 8.2×10^15 and 1.4×10^16 cations/cm^2, respectively. […] Use of low melting phosphonium salts permits formation of a formulation having low viscosity despite the high ion content, allowing for ease of handling and deposition. Use of high melting point organic salts in a similar fashion generates formulations with relatively high viscosities or significant solubility issues, which manifest themselves in poor films. Advantages of the phosphonium-based acrylate monomer in the fabrication of the charged surfaces can thus be seen.

[5] = of the protonated form; cited from earlier work

C=Cc1ccc(C[P+](CCCOC(C(F)(F)F)(C(F)(F)F)C(F)(F)F)(CCCOC(C(F)(F)F)(C(F)(F)F)C(F)(F)F)CCCOC(C(F)(F)F)(C(F)(F)F)C(F)(F)F)cc1.[Cl-] [[3b]Cl]
Solubility (in words) ([1]; chloroform): soluble | Solubility (in words) ([1]; dichloromethane): soluble | Solubility (in words) ([1]; most solvents including diethyl ether): high solubility | Time at which signal at m/z=197 was at a maximum [2]: 889 s | Time until fragment at m/z=197 was observed [2]: 532 s | Decomposition Point [3]: 198 °C and 197* ° C.

C=CC(=O)OCCC[P+](CCCC)(CCCC)CCCC.[Br-] [[4]Br, (3-(acryloyloxy)propyl)tributylphosphonium bromide]
% E. coli killed (unleached) (Escherichia coli; 25% [4]Br in EB 130 film): No | % E. coli killed (unleached) (Escherichia coli; 30% [4]Br in EB 130 film): 30 ± 5% | % E. coli killed (unleached) (Escherichia coli; 37.5% [4]Br in EB 130 film): 46 ± 7% | % E. coli killed (unleached) (Escherichia coli; 47.5% [4]Br in EB 130 film): 82 ± 9% | % S. Aureus killed (unleached) (S. Aureus; 30% [4]Br in EB 130 film): 100 ± 2% | % S. Aureus killed (leached) (S. Aureus; 47.5% [4]Br in EB 130 film, leached): 100 ± 2% | % S. Aureus killed (unleached) (S. Aureus; 47.5% [4]Br in EB 130 film): 100 ± 2% | Charge/Unit area ([4]; 25% [4]Br film): 0 ×10^x Y^+/cm^2 | Charge/Unit area ([4]; 30% [4]Br film): 1.47 × 10^15 ×10^x Y^+/cm^2 | Charge/Unit area ([4]; 37.5% [4]Br film): 8.18 × 10^15 ×10^x Y^+/cm^2 | Charge/Unit area ([4]; 47.5% [4]Br film): 1.42 × 10^16 ×10^x Y^+/cm^2

OC(C(F)(F)F)(C(F)(F)F)C(F)(F)F [perfluoro-tert-butoxide]
pKa [5]: 5.2
